# Assays:
# Experiment in all cases: Kinase inhibitor library screening, PrestoBlue cell viability, 1 or 10 μM, 72 h
# [1] = tested on: A375-XP cells (Vemurafenib-resistant); conditions: A375 XP
# Procedure: (§1) After 72 h of treatment, cell viability was assessed using the PrestoBlue Cell Viability Reagent (ThermoFisher Scientific). Measurements were performed with the CLARIOstar Monochromator microplate reader (BMG Labtech).
# (§2) Kinase inhibitor library screening. […] Each cell line was treated in its sensitive form (parental), and also as 2 resistant derivatives, which were made resistant to either Vemurafenib (XP) or Dabrafenib (GP). Drugs were added at 2 different concentrations, 1 and 10 μM, for 72 h and cell viability was assessed using the PrestoBlue Cell Viability assay. Results are depicted as % viability compared to untreated cells. Each cell line was analyzed at least in duplicate. […] (XLSX 95 kb)
# [2] = tested on: IGR37-XP cells (Vemurafenib-resistant); conditions: IGR37 XP
# Procedure: as §1, §2
# [3] = tested on: 501Mel-GP cells (Dabrafenib-resistant); conditions: 501Mel GP, in %
# Procedure: as §1, §2
# [4] = tested on: 501Mel-XP cells (Vemurafenib-resistant); conditions: 501Mel XP, in %
# Procedure: as §1, §2
# [5] = tested on: IGR37-GP cells (Dabrafenib-resistant); conditions: IGR37 GP
# Procedure: as §1, §2
# A375 cells (parental) = conditions: A375 Parental
# Procedure: as §1, §2
# IGR37 cells (parental) = conditions: IGR37 Parental, in %
# Procedure: as §1, §2
# 501Mel cells (parental) = conditions: 501Mel Parental, in %
# Procedure: as §1, §2
# [6] = tested on: A375-GP cells (Dabrafenib-resistant); conditions: A375 GP
# Procedure: as §1, §2
compound,measurement,setting,value
Cc1cc(C(C)Nc2ccccc2)c2nc(N3CCOCC3)cc(=O)n2c1 (stereo not shown) [TGX-221],"Cell viability in kinase inhibitor library screening, A375 XP, 1μΜ","[1]; 1μΜ, 72 h",107.8
same,"Cell viability in kinase inhibitor library screening, A375 XP, 10μΜ","[1]; 10μΜ, 72 h",99.8
same,"Cell viability in kinase inhibitor library screening, IGR37 XP, 10μΜ","[2]; 10μΜ, 72 h",61.6%
same,"Cell viability in kinase inhibitor library screening, IGR37 XP, 1μΜ","[2]; 1μΜ, 72 h, in %",95.0
same,"Cell viability in kinase inhibitor library screening, 501Mel GP, 1μΜ","[3]; 1μΜ, 72 h",102.9
same,"Cell viability in kinase inhibitor library screening, 501Mel GP, 10μΜ","[3]; 10μΜ, 72 h",78.5
same,"Cell viability in kinase inhibitor library screening, 501Mel XP, 1μΜ","[4]; 1μΜ, 72 h",92.5
same,"Cell viability in kinase inhibitor library screening, 501Mel XP, 10μΜ","[4]; 10μΜ, 72 h",67.8
same,"Cell viability in kinase inhibitor library screening, IGR37 GP, 10μΜ","[5]; 10μΜ, 72 h",85.9%
same,"Cell viability in kinase inhibitor library screening, IGR37 GP, 1μΜ","[5]; 1μΜ, 72 h, in %",93.0
same,"Cell viability in kinase inhibitor library screening, A375 Parental, 10μΜ","A375 cells (parental); 10μΜ, 72 h",94.9
same,"Cell viability in kinase inhibitor library screening, A375 Parental, 1μΜ","A375 cells (parental); 1μΜ, 72 h",103.0
same,"Cell viability in kinase inhibitor library screening, IGR37 Parental, 1μΜ","IGR37 cells (parental); 1μΜ, 72 h",97.4
same,"Cell viability in kinase inhibitor library screening, IGR37 Parental, 10μΜ","IGR37 cells (parental); 10μΜ, 72 h",96.6
same,"Cell viability in kinase inhibitor library screening, 501Mel Parental, 1μΜ","501Mel cells (parental); 1μΜ, 72 h",99.4
same,"Cell viability in kinase inhibitor library screening, 501Mel Parental, 10μΜ","501Mel cells (parental); 10μΜ, 72 h",97.1
same,"Cell viability in kinase inhibitor library screening, A375 GP, 1μΜ","[6]; 1μΜ, 72 h",95.9
same,"Cell viability in kinase inhibitor library screening, A375 GP, 10μΜ","[6]; 10μΜ, 72 h",91.3
COc1cc2ncnc(Nc3cccc(Br)c3)c2cc1OC.Cl [PD153035 HCl],"cell viability, A375 XP, 1μΜ","[1]; 1μΜ, 72 h, in %",108.7
same,"cell viability, A375 XP, 10μΜ","[1]; 10μΜ, 72 h, in %",97.5
same,"cell viability, IGR37 XP, 10μΜ","[2]; 10μΜ, 72 h",30.6%
same,"cell viability, IGR37 XP, 1μΜ","[2]; 1μΜ, 72 h, in %",82.2
same,"cell viability, 501Mel GP, 1μΜ","[3]; 1μΜ, 72 h",110.1
same,"cell viability, 501Mel GP, 10μΜ","[3]; 10μΜ, 72 h",28.5
same,"cell viability, 501Mel XP, 1μΜ","[4]; 1μΜ, 72 h",99.4
same,"cell viability, 501Mel XP, 10μΜ","[4]; 10μΜ, 72 h",16.6
same,"cell viability, IGR37 GP, 10μΜ","[5]; 10μΜ, 72 h",73.7%
same,"cell viability, A375 Parental, 1μΜ","A375 cells (parental); 1μΜ, 72 h, in %",108.8
same,"cell viability, A375 Parental, 10μΜ","A375 cells (parental); 10μΜ, 72 h, in %",108.3
same,"cell viability, IGR37 Parental, 1μΜ","IGR37 cells (parental); 1μΜ, 72 h",115.8
same,"cell viability, IGR37 Parental, 10μΜ","IGR37 cells (parental); 10μΜ, 72 h",42.8
same,"cell viability, 501Mel Parental, 1μΜ","501Mel cells (parental); 1μΜ, 72 h",107.0
same,"cell viability, 501Mel Parental, 10μΜ","501Mel cells (parental); 10μΜ, 72 h",38.0
same,"cell viability, A375 GP, 1μΜ","[6]; 1μΜ, 72 h, in %",106.0
same,"cell viability, A375 GP, 10μΜ","[6]; 10μΜ, 72 h, in %",105.2
COc1cc2nccc(Oc3ccc(NC(=O)Nc4ccc(F)cc4F)c(F)c3)c2cc1OC [Ki8751],cell viability (kinase inhibitor library screening),"[1]; 10μΜ, in %",97.9
same,cell viability (kinase inhibitor library screening),"[2]; 1μΜ, in %",88.9
same,cell viability (kinase inhibitor library screening),"[2]; 10μΜ, in %",70.9
same,cell viability (kinase inhibitor library screening),[3]; 1μΜ,97.3
same,cell viability (kinase inhibitor library screening),[3]; 10μΜ,80.7
same,cell viability (kinase inhibitor library screening),[4]; 1μΜ,89.9
same,cell viability (kinase inhibitor library screening),[4]; 10μΜ,74.9
same,cell viability (kinase inhibitor library screening),"[5]; 1μΜ, in %",88.2
same,cell viability (kinase inhibitor library screening),"[5]; 10μΜ, in %",88.8
same,cell viability (kinase inhibitor library screening),"A375 cells (parental); 1μΜ, in %",96.1
same,cell viability (kinase inhibitor library screening),"A375 cells (parental); 10μΜ, in %",75.1
same,cell viability (kinase inhibitor library screening),IGR37 cells (parental); 1μΜ,93.0
same,cell viability (kinase inhibitor library screening),IGR37 cells (parental); 10μΜ,84.9
same,cell viability (kinase inhibitor library screening),501Mel cells (parental); 1μΜ,96.7
same,cell viability (kinase inhibitor library screening),501Mel cells (parental); 10μΜ,85.3
same,cell viability (kinase inhibitor library screening),"[6]; 1μΜ, in %",94.2
same,cell viability (kinase inhibitor library screening),"[6]; 10μΜ, in %",77.5
